Consider 1 compound from article PMC4601051, “Discovery of Indoline-2-carboxamide Derivatives as a New Class of Brain-Penetrant Inhibitors of Trypanosoma brucei” (Journal of Medicinal Chemistry, 2015).

Each structure is given as a SMILES string. In brackets after ≈: the same amount, converted by molar mass. Several values for one entry are separate records, joined by “and”; a condition that tells them apart may be missing. Equal entries are not always repeated. Where two headings read alike, the source gives them in different places. Where only a bound is given, the exact number is not on record here.

The test system of data set [1] is panel of receptors, including dopamine, serotonin, histamine, and muscarinic receptors. Put plainly: NIMH Psychoactive Drug Screening Program (PDSP) receptor panel. The data set is classed as binding. The note with it: significant inhibition is considered > 50%. The source says: However, the observed toxicity prevents further progression of the compounds. To try and identify a possible driver for toxicity, that may then offer an opportunity to design out this unwanted effect, the key compounds were screened against a panel of receptors at the NIMH Psychoactive Drug Screening Program (PDSP).[36],[37] No significant activity against a large panel of receptors, including dopamine, serotonin, histamine, and muscarinic receptors (see Supporting Information) was observed.
S2: Details of receptors screened at the NIMH Psychoactive Drug Screening Program […]
receptors screened. Significant inhibition is considered > 50%. In cases where negative inhibition (-) is seen, this represents a stimulation of binding. The receptors screened were 5- […]
HT7, Alpha1A, Alpha1B, Alpha1D, Alpha2A, Alpha2B, Alpha2C, Beta1, Beta2, Beta3, BZP rat Brain site, D1, D2, D3, D4, D5, DAT, DOR, GABBA, H1, H2, H3, KOR, M1, M2, M3, M4, M5, MOR, NET, PBR, SERT, Sigma1 and Sigma2

A short description of another data set: in vitro. Conditions: human, MRC-5 fibroblasts.
Data set [2] in a line: Mouse brain penetration (brain:blood ratio). Conditions: in vivo, dosed intravenously at 0.5 or 1 mg/kg, levels measured after 5 min, female NMRI mice, read-out: B:B (brain to blood ratio). The protocol:
Each compound was dosed as a bolus solution intravenously at 0.5 or 1 mg free base/kg (dose volume, 5 mL/kg; dose vehicle, 10% DMSO; 40% PEG400; 50% Milli-Q water) to female NMRI mice (n = 6). At 5 and 30 min following intravenous bolus injection of test compound, mice (n = 3/time point) were placed under terminal anesthesia with isofluorane. A blood sample was taken by cardiac puncture and mixed with two volumes of distilled water, the mice decapitated, and the brain removed. Diluted blood and brains were stored frozen until preparation and analysis by UPLC/MS/MS. For each mouse at each time point, the concentration in brain (ng/g) was divided by the concentration in blood (ng/mL) to give a brain:blood ratio. The mean value obtained was quoted.

Data set [3] in a line: Aqueous kinetic solubility by laser nephelometry. Conditions: aqueous medium, Table 7. The data set is classed as physicochemical. The method, then: (§1) The software package StarDrop by Optibrium was used to calculate physicochemical parameters including log P, molecular weight, and polar surface area (PSA). The aqueous kinetic solubility of the compounds was measured using laser nephelometry as previously described.[40] The plasma protein binding of the compounds was determined by the equilibrium dialysis method.[12]

Data set [4] in a line: Plasma protein binding by equilibrium dialysis, mouse. In kind it is in vitro ADME. Conditions: read-out: plasma protein binding, Fu (fraction unbound). The method, then: as §1
A general note: Equilibrium dialysis compares concentrations on both sides of a semipermeable membrane.

Data set [5] is described as follows: In vivo mouse pharmacokinetics. The note with it: for Cmax / Tmax / half-life / AUC(0-t) at 8 h / AUC(0-t): female, mouse, in vivo, 10 mg/kg, NMRI mice; for AUC(0-t) at 8 h: read-out: AUC0–8; for AUC(0-t): read-out: AUC0–8 (converted). The protocol:
Each compound was dosed as a bolus solution intraperitoneally at 10 mg free base/kg (dose volume, 10 mL/kg; dose vehicles used, 10% DMSO; 40% PEG400; 50% Milli-Q water or 5% DMSO; 40% PEG400; 55% saline) to female HRN (1 only) or NMRI mice (n = 3) or dosed orally by gavage as a solution at 10 mg free base/kg (dose volume, 10 mL/kg; dose vehicle, 10% DMSO; 40% PEG400; 50% Milli-Q water) to female NMRI mice (n = 3). Female NMRI mice were chosen, as these represent the sex and strain used for the stage 1 and stage 2 HAT efficacy models. Blood samples were taken from each mouse at 5 (IP only), 15, and 30 min, 1, 2, 4, 6, and 8 h post dose, mixed with two volumes of distilled water, and stored frozen until UPLC/MS/MS analysis. Pharmacokinetic parameters were derived from noncompartmental analysis of the blood concentration time curve using PK solutions software v 2.0 (Summit Research Services, USA).

Data set [6] can be described thus: Maximum tolerated dose (MTD) studies.
The test system of a further data set is T. b. brucei GVR35. The note with it: 12.5 mg/kg IP b.i.d. for 5 d from 21 d post infection, majority of mice. The method, then: For stage 2 of infection, the standard model is T. b. brucei GVR35 in which CNS infection is allowed to develop in female NMRI mice before treatment starts, requiring about 21 d.
These were carried out as previously described[27],[32] at the dose level presented and using the same dose formulation as the pharmacokinetic studies. HRN mice were used under the same infection and monitoring protocol as described for female NMRI mice.

Data set [7] relates to bloodstream form T. brucei brucei. Put plainly: T. b. brucei whole cell parasite (trypanosome growth) assay. In kind it is cell-based, Trypanosoma brucei brucei. The method, then: This was conducted as previously described.[27] Cell culture plates were stamped with 1 μL of an appropriate stock concentration of test compound, followed by addition of 200 μL of trypanosome culture (HMI9-T, 10% FCS) to each well at a density of 2000 cells per well (except column 12 receiving media only). […] Potency was carried out using 10-point dose–response curves.

Data set [8] is described as follows: Microsomal intrinsic clearance (Clint), mouse. The data set is classed as in vitro ADME. The note with it: mouse liver microsomes, 0.5 μM compound. The method, then: Each test compound (0.5 μM) was incubated with pooled female CDI mouse liver microsomes, pooled male Sprague–Dawley rat microsomes, or pooled mixed gender human liver microsomes (Tebu-Bio, UK; 0.5 mg/mL 50 mM potassium phosphate buffer, pH 7.4) and the reaction started with addition of excess NADPH (8 mg/mL, 50 mM potassium phosphate buffer, pH 7.4). Immediately, at time zero, then at 3, 6, 9, 15, and 30 min, an aliquot (50 μL) of the incubation mixture was removed and mixed with acetonitrile (100 μL) to stop the reaction. Internal standard was added to all samples, and the samples were centrifuged at 1825g for 10 min to sediment precipitated protein. The plates were then sealed prior to UPLC/MS/MS analysis using a Quattro Premier XE (Waters Corporation, USA).
XLfit (IDBS, UK) was used to calculate the exponential decay and consequently the rate constant (k) from the ratio of peak area of test compound to internal standard at each time point.
On the technique in general: Liver microsomes are vesicles of endoplasmic reticulum, rich in cytochrome P450 enzymes.

Procedure for in vitro: Proliferation assays using bloodstream form T. brucei brucei and human MRC-5 fibroblasts were conducted using a modification of the cell viability assay as previously reported.[27],[39]
MRC-5 cells (2000 cells per well) were seeded in 200 μL of DMEM, 10% FCS, and allowed to adhere overnight. One microliter of test compound was added to each well on the day of assay initiation.
The final DMSO level was 0.5% in all cases.

Take `CNC(=O)[C@H]1Cc2ccccc2N1C(=O)Cc1ccc(F)cc1` [Compound 47, (R)-1-(2-(4-Fluorophenyl)acetyl)-N-methylindoline-2-carboxamide]: in [1], the “inhibition against receptors screened” value is listed as “did not show significant inhibitor”. The EC50 at 69 h in the data set “in vitro” is above 50000 nM. Moreover, the Kp at 5 min in [2] came to 0.9. This compound registered a solubility in data set [3] of 64 µg/mL (≈ 205 µM). Further, in data set [4], the fraction unbound was 0.59. The “higher AUC compared to 1” value in data set [5] (IP, female NMRI mice) is listed as 1.5–6.5 fold. In addition, in [5] (IP), the Cmax was 2300 ng/mL and 7.4 µM; the Tmax worked out at 15 min; the half-life was 30 min; the AUC(0-t) at 8 h is 9.1 µM·h. Besides, in [5] (IP), the AUC(0-t) was 2830 ng·h/mL. Further, in data set [5] (PO), the Cmax is 750 ng/mL and 2.4 µM; the Tmax is 30 min; the half-life was 36 min; the AUC(0-t) at 8 h was found to be 3.3 µM·h. The AUC(0-t) in data set [5] (PO) is 1020 ng·h/mL. Also, the tolerability result in [6] (15 mg/kg IP b.i.d., female NMRI mice (47: for 3 days)) was “well tolerated”. The tolerability entry in [6] (25 mg/kg after a single dose, female NMRI mice) is reported as “clinical signs of toxicity”. The “relapse with parasitaemia later than vehicle dosed infected mice” value with T. b. brucei GVR35 was in the range of 6 to 13 days. In data set [7] (T. brucei EC50 curve), this compound registered a Hill slope of 2.8. Moreover, in [7] (Trypanosoma brucei, mean of two or more determinations, 69 h + 4 h resazurin, read-out: T. b. brucei EC50), the EC50 was determined as 50 nM. The “mouse microsomal intrinsic clearance” value in [8] was 1.9 mL min^–1 g^–1 and 1.9/ND mL min^–1 g^–1.

Usually EC50 stands for the midpoint of the concentration-response curve. As usually defined, the solubility is the concentration that dissolves in the medium under given conditions. A high value points to a readily soluble substance. Usually fraction unbound stands for free concentration divided by total concentration. As usually defined, the Cmax is the highest concentration seen after dosing. As a reminder, the Tmax is the time from dosing to the highest level. What is called half-life is the time in which the quantity being followed falls by half. Usually Hill slope stands for the slope factor of the fitted curve.
